From patent US20250032425A1, “FIRST IN CLASS USE OF ESTROGEN RECEPTOR BETA AGONISTS IN TREATING ANGELMAN SYNDROME AND RELEVANT AUTISM SPECTRUM DISORDERS” (BROWN UNIVERSITY, priority 2023, published 2025)
Entries after “also recorded” stand apart in the source; their conditions may differ.

Assays:
[1] = test system: Angelman syndrome (AS) mice; assay: Accelerating Rotarod test in AS mice; format: in vivo, mouse; details: 10 mg/kg daily IP, days 1-3, vs AS vehicle
Protocol: Animal handling and experimental use strictly followed NIH guidelines and protocols approved by the local Institutional Animal Care and Use Committee (IACUC) of Brown University. In all experiments, Mice were age and gender-matched. Multiple liters were used for all experiments. Weaned mice, housed in groups of two to four per cage, were maintained on a 12-h light/dark cycle with food and water ad libitum.
(§1) ESRβ agonist AC-186 treatment in vivo. 10 mg/kg AC-186 was daily IP delivered after dissolved at high concentration (30 mg/ml) in DMSO and further diluted in 20% PEG300. Vehicle groups received the same volume and concentration of diluted DMSO in 20% PEG300. Treatment started at P13 and continued until mice were sacrificed at P42.
This involved conducting two trials per day for three consecutive days, with a 20-minute rest interval between trials. During each trial, mice were placed on a rod that accelerated from 4 to 40 RPM over a five-minute period, and the time until each mouse fell was recorded. The average duration before falling was tracked and graphed across the three-day span.

[2] = test system: Angelman syndrome (AS) mice; assay: Immunofluorescence histopathology of brain sections after treatment (oligodendroglia, myelination, ESRβ, UBE3A); format: in vivo, mouse
Protocol: For immunofluorescence with brain tissue sections, mice were sacrificed under deep anesthesia using Xylazine (10 mg/kg body weight) and Ketamine (100 mg/kg body weight) and perfused through the left cardiac ventricle with ice-cold phosphate-buffered saline (PBS) followed by 4% paraformaldehyde (PFA) in PBS. Whole brains were removed and post-fixed in 4% PFA overnight at 4° C. followed by sequential immersion in 15% and 30% sucrose for cryoprotection. The brain was then dissected and 25 μm coronal sections were prepared with a Cryostat Leica. Sections collected on the charged microscope slides (Globe Scientific #1354W) were processed for immunohistochemical staining as follows. In brief, tissue sections were blocked for 1 hour at room temperature (RT) in 5% goat/donkey serum (G/DS) with 0.3% Triton-X100 in 0.1 M phosphate buffer (0.3% PBST). After blocking, tissue sections were incubated in primary antibody diluted in blocking solution overnight at 4° C. The following day, sections were briefly washed 3 times for 5 min each at RT in PBS followed by incubation with secondary antibodies diluted in blocking solution for 2 hours at RT. Sections were then briefly washed 3 times for 5 min each at RT in PBS and mounted using EMS Shield Mount with Dabco (Electron Microscopy Sciences, #17985-200) mounting media with 4′,6-diamidino-2-phenylindole (DAPI) (Vector Laboratories, #H-1200) to stain cell nuclei.
For the purpose of imaging brain sections, we utilized both the BioTek Lionheart FX Automated Microscope and the Zeiss LSM 880 confocal laser-scanning microscope. The subsequent image analysis and quantification were conducted using NIH ImageJ software, employing the particle and intensity analysis macro for detailed examination. Channels were separated, and images from various experimental groups were thresholded uniformly to identify individual cells. In each brain, 20-30 cells were outlined for analysis. To determine the extent of colocalization, we applied the Zeiss ZEN Microscopy Software's colocalization coefficient analysis tool, which allowed for precise measurement of overlapping signals within the selected cells.
To assess the levels of UBE3A protein within oligodendroglial cells, dual immunofluorescent staining was conducted. This involved the use of a UBE3A antibody sourced from Santa Cruz Biotechnology (sc-10294) and an Olig2 antibody provided by Aves Labs (#OLIG2-0020). The corresponding secondary antibodies were tagged with Alexa 647 and Alexa 488 fluorophores. These procedures were applied to coronal brain sections harvested from postnatal days 7-10, 30, and 42 from both control and Angelman Syndrome (AS) mice. We utilized a 20× objective on a GENS microscope to capture confocal images of UBE3A and Olig2 expression. Subsequent analysis was performed using NIH ImageJ software, where fluorescence intensities, denoted in arbitrary units (a.u.), were measured to determine the relative quantities of UBE3A protein. The quantification process involved delineating areas of interest around Olig2-positive cells. Quantitative analysis of ESR2 and MBP proteins was carried out using a similar method.
as §1

[3] = test system: rat primary OPCs deficient in UBE3A; assay: Ki67 immunoblotting in primary rat OPCs with Ube3A siRNA knockdown; format: cell-based; details: siUBE3A; 10 μM over 24 hours; vs siUBE3A alone
Protocol: OPC purification followed our protocol previously described in Mei et al., 2016 (Identification of the Kappa-Opioid Receptor as a Therapeutic Target for Oligodendrocyte Remyelination. J Neurosci 36, 7925-7935), isolating cells from day 7 postnatal rat cortical hemispheres. The process began with mechanical dissection and papain digestion at 37° C. for 75 minutes, with occasional shaking. After trituration, cells were processed through immunopanning with 0.2% BSA, involving 30 minutes of negative and 45 minutes of positive selection. Selection plates were pre-treated with secondary antibodies and incubated with primary antibodies Ran-2, Gal-C (for negative) and O4 (for positive selection). Trypsin dissociated OPCs from the selection dish, and the reaction was stopped with 30% FBS, achieving >95% purity. OPCs were then plated on poly-1-lysine-coated coverslips in a nutrient-rich medium and incubated at 37° C. and 5% CO2 overnight. Post PDGF-AA removal, OPCs received either compound or control treatments for 2 days, with vehicle controls adjusted to match treatment concentrations.
The siRNAs targeting UBE3A (Thermo Fisher, #4390815 and #4390816), estrogen receptors (Thermo Scientific #145909 for ESRβ, #145539 for ESRα, and #4390824 for GPER), and negative control (Thermo Scientific, #AM4615) were obtained commercially. […]

[4] = corpus callosum, AS mice vs AS saline
[5] = corpus callosum, AS mice vs AS vehicle
[6] = cortex, hippocampus, and fimbria, AS mice vs AS saline

Oc1ccc(C2(c3ccccc3F)CCC(F)(F)CC2)cc1 [AC-186]
Rotarod time to fall [1]: significant improvements; also recorded: increased
UBE3A intensity ([2]; AS mice vs AS saline): did not modify; also recorded: comparable
oligodendrocyte populations and myelination ([2]; AS mouse brains): notably restored
ESRβ intensity in Olig2-positive and O4-positive cells [2, 4]: slightly increased; also recorded: increased
O4-positive cells/mm^2 [2, 4]: increased
Olig2-positive cells/mm^2 [2, 4]: increased
OPC density (PDGFRa-positive cells per square millimeter) [2, 5]: increased
proliferating OPCs (Ki67 and PDGFRa dual positive, proportion of total OPCs) [2, 5]: increased
MBP intensity [2, 6]: increased
O4-positive cell density [2, 6]: increased
Olig2-positive cell density [2, 6]: increased
oligodendrocyte populations and myelination ([2]; wildtype mice): no impact
OPC proliferation (Ki67 expression) [3]: rescues impaired proliferation; also recorded: rescued; also recorded: reversed; also recorded: rescue of OPC proliferation; also recorded: increased Ki67 expression
